Test results reported in ChEMBL document CHEMBL1201862, “PubChem BioAssay data set” (2004).
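48-hour exposure; five concentrations; linearly interpolated endpoints. GI50: concentration for 50% inhibition of growth.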 Calls of active or inactive are those of the source. No stated cut-off is given here; in the data, active = GI50 up to about 1.1 µM and inactive = higher.

Legend:
Test in all cases: NCI tumour cell line growth inhibition, 48 h
786-0 = system: 786-0
A549 = system: A549
ACHN = system: ACHN
CAKI-1 = system: CAKI-1
CCRF-CEM = system: CCRF-CEM
DU-145 = system: DU-145
Hs-578T = system: Hs-578T
KM12 = system: KM12
MDA-MB-435 = system: MDA-MB-435
MDA-N = system: MDA-N
NCI-H226 = system: NCI-H226
OVCAR-4 = system: OVCAR-4
OVCAR-5 = system: OVCAR-5
PC-3 = system: PC-3
SF-268 = system: SF-268
SK-MEL-5 = system: SK-MEL-5
SK-OV-3 = system: SK-OV-3
SNB-19 = system: SNB-19
TK-10 = system: TK-10
U-251 = system: U-251

SMILES | GI50 (786-0) | GI50 (A549) | GI50 (ACHN) | GI50 (CAKI-1) | GI50 (CCRF-CEM) | GI50 (DU-145) | GI50 (Hs-578T) | GI50 (KM12) | GI50 (MDA-MB-435) | GI50 (MDA-N) | GI50 (NCI-H226) | GI50 (OVCAR-4) | GI50 (OVCAR-5) | GI50 (PC-3) | GI50 (SF-268) | GI50 (SK-MEL-5) | GI50 (SK-OV-3) | GI50 (SNB-19) | GI50 (TK-10) | GI50 (U-251)
O=C(NNc1ccccc1)c1ccc(Cl)c(Cl)c1 | 41 µM (inactive) | 6.59 µM (inactive) | 11.3 µM (inactive) | 0.259 µM (active) | 1.12 µM (inactive) | 26.9 µM (inactive) | 28.5 µM (inactive) | 0.114 µM (active) | 0.206 µM (active) | 0.122 µM (active) | 29.9 µM (inactive) | 16.2 µM (inactive) | 57 µM (inactive) | 25.2 µM (inactive) | 1.45 µM (inactive) | 1.3 µM (inactive) | 21.1 µM (inactive) | 25.8 µM (inactive) | 20.7 µM (inactive) | 18.2 µM (inactive)
CCOC(=O)c1c(O)cn2c1[nH]c1cccc3cccc2c31 | 52.2 µM (inactive) | > 100 µM (inactive) | 52.4 µM (inactive) | > 100 µM (inactive) | 32.6 µM (inactive) | 71.6 µM (inactive) | > 100 µM (inactive) | > 100 µM (inactive) | > 100 µM (inactive) | > 100 µM (inactive) | > 100 µM (inactive) | > 100 µM (inactive) | > 100 µM (inactive) | > 100 µM (inactive) | 63.7 µM (inactive) | > 100 µM (inactive) | > 100 µM (inactive) | 97.7 µM (inactive) | > 100 µM (inactive) | 63.4 µM (inactive)
COC(=O)c1c(O)ccc2[nH]c3c(O)c4ccccc4cc3c12 | 32 µM (inactive) | 32.2 µM (inactive) | 27.9 µM (inactive) | 18.5 µM (inactive) | 20.8 µM (inactive) | 20 µM (inactive) | 23.7 µM (inactive) | 16 µM (inactive) | 27.9 µM (inactive) | 28.4 µM (inactive) | 65.8 µM (inactive) | 25.5 µM (inactive) | 76.9 µM (inactive) | 30.4 µM (inactive) | 21.9 µM (inactive) | 24 µM (inactive) | 33.6 µM (inactive) | 41.7 µM (inactive) | 34.2 µM (inactive) | 36.5 µM (inactive)
COc1cc(C)c2c(=O)c3ccccc3n(C)c2c1 | 10.6 µM (inactive) | 38.5 µM (inactive) | 24.3 µM (inactive) | 31.3 µM (inactive) | 21.9 µM (inactive) | 33.2 µM (inactive) | 40.4 µM (inactive) | 23.9 µM (inactive) | 40.8 µM (inactive) | 55.6 µM (inactive) | 26.7 µM (inactive) | 19.7 µM (inactive) | 16.9 µM (inactive) | 28.8 µM (inactive) | 30.5 µM (inactive) | > 10 µM (inactive) | 43.1 µM (inactive) | 34.8 µM (inactive) | 40.9 µM (inactive) | 20 µM (inactive)
O=C1C(c2c(O)[nH]c3ccc([N+](=O)[O-])cc23)=Nc2ccccc21 | 59.8 µM (inactive) | > 100 µM (inactive) | 40.5 µM (inactive) | > 100 µM (inactive) | > 100 µM (inactive) | > 100 µM (inactive) | 56.9 µM (inactive) | > 100 µM (inactive) | > 100 µM (inactive) | > 100 µM (inactive) | > 100 µM (inactive) | > 100 µM (inactive) | > 100 µM (inactive) | 83.6 µM (inactive) | > 100 µM (inactive) | > 100 µM (inactive) | > 100 µM (inactive) | 49.8 µM (inactive) | 34.6 µM (inactive) | 21.2 µM (inactive)
O=C(CC(c1ccccc1)C1C(=O)NC(=S)NC1=O)c1ccc([N+](=O)[O-])cc1 (stereo not given) | > 100 µM (inactive) | > 100 µM (inactive) | > 100 µM (inactive) | 22.4 µM (inactive) | > 100 µM (inactive) | > 100 µM (inactive) | > 100 µM (inactive) | 65.2 µM (inactive) | > 100 µM (inactive) | > 100 µM (inactive) | > 100 µM (inactive) | > 100 µM (inactive) | > 100 µM (inactive) | > 100 µM (inactive) | 72.8 µM (inactive) | > 100 µM (inactive) | > 100 µM (inactive) | > 100 µM (inactive) | > 100 µM (inactive) | > 100 µM (inactive)
COC1=C(NC(C)=O)C(=O)c2nc3n(c2C1=O)CCC3 | 19.5 µM (inactive) | 27.3 µM (inactive) | 19.9 µM (inactive) | 18.3 µM (inactive) | 3.78 µM (inactive) | 20.8 µM (inactive) | 30.8 µM (inactive) | 25.7 µM (inactive) | 3.64 µM (inactive) | 2.83 µM (inactive) | 26.7 µM (inactive) | 16.7 µM (inactive) | 18.7 µM (inactive) | 34.8 µM (inactive) | 17.7 µM (inactive) | 17.5 µM (inactive) | 41.6 µM (inactive) | 26.7 µM (inactive) | 30.3 µM (inactive) | 23.8 µM (inactive)
